{"source": "patent US7459458B2", "about": "“Polymorph of N-methyl-N-(3-{3-[2-thienylcarbonyl]-pyrazol-[1,5-α]-pyrimidin-7-yl}phenyl)acetamide and compositions and methods related thereto” (Neurocrine Biosciences, Inc., priority 2002, dated 2008)", "assay": "Interconversion experiments (slurry) to evaluate thermodynamic stability of Compound 1 at room temperature", "assay_type": "physicochemical", "settings": "agitated 16 days", "description": "Interconversion experiments were carried out to evaluate the thermodynamic stability of Compound 1 at room temperature. Three slurries were prepared by making saturated isopropanol solutions of Compound 1, filtering the solutions through 0.2 μm filters, and then adding an amount (in the form of crystals) of a polymorphic form of Compound 1. To the first slurry, equal amounts of both polymorph Form II and polymorph Form III (i.e., approximately 25 mg each) were added; to the second slurry, equal amounts of polymorph From I and polymorph Form III (i.e., approximately 25 mg each) were added; and to the third slurry, approximately 25 mg of polymorph Form III was added. The slurries were then agitated for 16 days. The resulting solids were collected by vacuum filtration, air-dried, and analyzed using XRPD.", "data": [{"smiles": "CC(=O)N(C)c1cccc(-c2ccnc3c(C(=O)c4cccs4)cnn23)c1", "note": "[polymorph Form III, N-methyl-N-(3-{3-[2-thienylcarbonyl]-pyrazol-[1,5-α]-pyrimidin-7-yl}phenyl)acetamide]", "values": [{"measurement": "solid form obtained from slurry (XRPD)", "setting": "saturated isopropanol slurry seeded with approx. 25 mg polymorph Form III alone", "result": "exclusively polymorph Form III"}, {"measurement": "solid form obtained from slurry (XRPD)", "setting": "saturated isopropanol slurry seeded with equal amounts (approx. 25 mg each) of polymorph Form I and Form III", "result": "polymorph Form III as the predominant product, with only a minor amount of polymorph Form I"}, {"measurement": "solid form obtained from slurry (XRPD)", "setting": "saturated isopropanol slurry seeded with equal amounts (approx. 25 mg each) of polymorph Form II and Form III", "result": "exclusively polymorph Form III"}]}]}
